Target: factor B (Homo sapiens, UniProt P00751)
Assay: factor B inhibition assay of Biological Example 1
Type: biochemical
Design: CVF-Bb complex prepared from purified cobra venom factor (1 μM), recombinant human complement factor B; made in house; host or cells: drosophila cells (factor B); E. coli (factor D used to form the complex)
Details: IC50 (nM), assay of Biological Example 1 (Table 1)

factor B, sequence (P00751 260-764 limits assumed): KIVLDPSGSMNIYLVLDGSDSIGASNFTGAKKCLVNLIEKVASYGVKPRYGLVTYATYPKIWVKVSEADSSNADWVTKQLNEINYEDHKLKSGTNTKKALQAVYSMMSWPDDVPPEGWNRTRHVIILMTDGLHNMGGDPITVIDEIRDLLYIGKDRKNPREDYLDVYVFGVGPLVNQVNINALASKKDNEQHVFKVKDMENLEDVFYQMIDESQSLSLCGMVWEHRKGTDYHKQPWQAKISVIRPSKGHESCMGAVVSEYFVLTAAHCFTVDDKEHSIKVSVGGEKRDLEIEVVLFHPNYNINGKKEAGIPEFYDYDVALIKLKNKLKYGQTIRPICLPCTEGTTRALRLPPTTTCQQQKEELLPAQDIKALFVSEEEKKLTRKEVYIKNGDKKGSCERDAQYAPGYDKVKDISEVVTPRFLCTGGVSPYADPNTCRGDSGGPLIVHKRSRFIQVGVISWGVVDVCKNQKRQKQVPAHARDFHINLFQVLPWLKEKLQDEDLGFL
factor B, sequence (Q91132 23-649 partner limits assumed): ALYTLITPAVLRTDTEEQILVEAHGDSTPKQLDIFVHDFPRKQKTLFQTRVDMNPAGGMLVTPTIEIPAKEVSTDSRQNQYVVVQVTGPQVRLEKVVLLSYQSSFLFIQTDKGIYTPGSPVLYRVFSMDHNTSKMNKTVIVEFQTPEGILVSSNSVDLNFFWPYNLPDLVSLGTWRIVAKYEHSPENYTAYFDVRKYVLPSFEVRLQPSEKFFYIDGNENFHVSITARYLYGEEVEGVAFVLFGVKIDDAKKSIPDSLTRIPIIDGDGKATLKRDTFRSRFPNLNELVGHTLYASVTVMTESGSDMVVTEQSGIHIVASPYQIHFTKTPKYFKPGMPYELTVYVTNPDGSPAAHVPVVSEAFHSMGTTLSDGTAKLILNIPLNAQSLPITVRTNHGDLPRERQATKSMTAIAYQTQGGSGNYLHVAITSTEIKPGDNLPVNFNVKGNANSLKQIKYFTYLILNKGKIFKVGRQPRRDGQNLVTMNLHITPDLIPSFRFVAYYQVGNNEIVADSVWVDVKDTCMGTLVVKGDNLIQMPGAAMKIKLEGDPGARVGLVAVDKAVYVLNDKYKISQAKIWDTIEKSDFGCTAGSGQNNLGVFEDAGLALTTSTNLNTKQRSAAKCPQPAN
factor B, sequence (Q91132 733-984 partner limits assumed): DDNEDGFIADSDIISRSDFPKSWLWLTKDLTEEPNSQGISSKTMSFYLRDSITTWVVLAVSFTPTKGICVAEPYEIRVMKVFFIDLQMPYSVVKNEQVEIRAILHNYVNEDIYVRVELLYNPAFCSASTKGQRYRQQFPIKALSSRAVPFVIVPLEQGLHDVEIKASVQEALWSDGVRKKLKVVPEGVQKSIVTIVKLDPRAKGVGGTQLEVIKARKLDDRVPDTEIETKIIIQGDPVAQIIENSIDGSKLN
factor B, sequence (Q91132 1264-1642 partner limits assumed): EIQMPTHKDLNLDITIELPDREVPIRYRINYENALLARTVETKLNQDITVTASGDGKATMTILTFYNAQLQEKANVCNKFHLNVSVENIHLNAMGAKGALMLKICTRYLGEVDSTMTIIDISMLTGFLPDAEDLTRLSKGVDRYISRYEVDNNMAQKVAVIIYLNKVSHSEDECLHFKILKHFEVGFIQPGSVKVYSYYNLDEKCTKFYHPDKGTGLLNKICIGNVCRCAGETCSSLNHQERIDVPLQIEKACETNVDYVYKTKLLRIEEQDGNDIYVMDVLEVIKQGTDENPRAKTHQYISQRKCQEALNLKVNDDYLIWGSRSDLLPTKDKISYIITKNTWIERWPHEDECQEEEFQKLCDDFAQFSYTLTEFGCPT

**Q.** For `CNC(c1nc2cc(C#N)ccc2[nH]1)c1c(OC(F)F)cc(C)c2[nH]ccc12` (racemic) [Example 4, (±)-2-((5-(Difluoromethoxy)-7-methyl-1H-indol-4-yl)(methylamino)methyl)-1H-benzo[d]imidazole-5-carbonitrile], which IC50 is on record?
**A.** The IC50 was 570 nM.

**Q.** For `Cc1cc(S(C)(=O)=O)c(C(O)c2nc3cc(C#N)ccc3[nH]2)c2cc[nH]c12` (racemic) [Example 10-C, (±)-2-(Hydroxy(7-methyl-5-(methylsulfonyl)-1H-indol-4-yl)methyl)-1H-benzo[d]imidazole-5-carbonitrile], which IC50 is on record?
**A.** The IC50 was 1360 nM.

**Q.** Which IC50 does the source give for `COCC(C)Oc1cc(C)c2[nH]ccc2c1Cc1nc2cc(C#N)ccc2[nH]1` (racemic) [Example 23, (±)-2-((5-((1-Methoxypropan-2-yl)oxy)-7-methyl-1H-indol-4-yl)methyl)-1H-benzo[d]imidazole-5-carbonitrile] here?
**A.** The IC50 was 2650 nM.

**Q.** `Cc1cc(OCC(N)=O)c(C(C)(O)c2nc3cc(C#N)ccc3[nH]2)c2cc[nH]c12` (racemic) [Example 31-C, (±)-2-((4-(1-(5-Cyano-1H-benzo[d]imidazol-2-yl)-1-hydroxyethyl)-7-methyl-1H-indol-5-yl)oxy)acetamide] was tested. Which IC50 did it give?
**A.** Its IC50 is 430 nM.

**Q.** `Cc1cc(OCC(=O)O)c(C(C)(O)c2nc3cc(C#N)ccc3[nH]2)c2cc[nH]c12` (racemic) [Example 32-B, (±)-2-((4-(1-(5-Cyano-1H-benzo[d]imidazol-2-yl)-1-hydroxyethyl)-7-methyl-1H-indol-5-yl)oxy)acetic acid] was tested. Which IC50 did it give?
**A.** The IC50 was 1410 nM.

**Q.** How did the IC50 turn out when `Cc1cc(OC(C)C)c(C(N)(c2nc3cc(C#N)ccc3[nH]2)C(F)(F)F)c2cc[nH]c12` (racemic) [Example 37, (±)-2-(1-Amino-2,2,2-trifluoro-1-(5-isopropoxy-7-methyl-1H-indol-4-yl)ethyl)-1H-benzo[d]imidazole-5-carbonitrile] was run?
**A.** Its IC50 is 30 nM.

**Q.** With `COc1cc(C)c2[nH]ccc2c1C(c1nc2cc(C#N)ccc2[nH]1)(N(C)C)C(F)(F)F` (racemic) [Example 38-C, (±)-2-(1-(Dimethylamino)-2,2,2-trifluoro-1-(5-methoxy-7-methyl-1H-indol-4-yl)ethyl)-1H-benzo[d]imidazole-5-carbonitrile] as the compound, how does the IC50 read?
**A.** Its IC50 is 490 nM.

**Q.** For `Cc1cc(OC(C)C)c(C(N)c2nc3cc(C#N)ccc3[nH]2)c2cc[nH]c12` (racemic) [Example 40, (±)-2-(Amino(5-isopropoxy-7-methyl-1H-indol-4-yl)methyl)-1H-benzo[d]imidazole-5-carbonitrile], which IC50 is on record?
**A.** Its IC50 is 50 nM.

**Q.** `COc1cc(C)c2[nH]ccc2c1C(c1nc2cc(C#N)ccc2[nH]1)N(C)C` (racemic) [Example 43-C, (±)-2-((Dimethylamino)(5-methoxy-7-methyl-1H-indol-4-yl)methyl)-1H-benzo[d]imidazole-5-carbonitrile] was tested. Which IC50 did it give?
**A.** The IC50 was 1180 nM.

**Q.** How did the IC50 turn out when `CCOc1cc(C)c2[nH]ccc2c1C(CN)c1nc2cc(C#N)ccc2[nH]1` (racemic) [Example 44-C, (±)-2-(2-amino-1-(5-ethoxy-7-methyl-1H-indol-4-yl)ethyl)-1H-benzo[d]imidazole-5-carbonitrile] was run?
**A.** Its IC50 is 870 nM.

**Q.** `CCOc1cc(C)c2[nH]ccc2c1C(CNC)c1nc2cc(C#N)ccc2[nH]1` (racemic) [Example 45, (±)-2-(1-(5-ethoxy-7-methyl-1H-indol-4-yl)-2-(methylamino)ethyl)-1H-benzo[d]imidazole-5-carbonitrile] was tested. Which IC50 did it give?
**A.** The IC50 was 1040 nM.

**Q.** How did the IC50 turn out when `COC(c1nc2cc(C#N)ccc2[nH]1)c1c(C)cc(C)c2[nH]ccc12` (racemic) [Example 68-B, (±)-2-((5,7-Dimethyl-1H-indol-4-yl)(methoxy)methyl)-1H-benzo[d]imidazole-5-carbonitrile] was run?
**A.** The IC50 was 200 nM.

**Q.** How did the IC50 turn out when `Cc1cc(C)c2[nH]ccc2c1C(OCC(=O)O)c1nc2cc(C#N)ccc2[nH]1` (racemic) [Example 69, (±)-2-((5-cyano-1H-benzo[d]imidazol-2-yl)(5,7-dimethyl-1H-indol-4-yl)methoxy)acetic acid] was run?
**A.** The IC50 was 3630 nM.

**Q.** For `CCOC(c1nc2cc(C#N)ccc2[nH]1)c1c(C)cc(C)c2[nH]ccc12` (racemic) [Example 73, (±)-2-((5,7-Dimethyl-1H-indol-4-yl)(ethoxy)methyl)-1H-benzo[d]imidazole-5-carbonitrile], which IC50 is on record?
**A.** Its IC50 is 1270 nM.

**Q.** Which IC50 does the source give for `COCCOC(c1nc2cc(C#N)ccc2[nH]1)c1c(C)cc(C)c2[nH]ccc12` (racemic) [Example 74, (±)-2-((5,7-Dimethyl-1H-indol-4-yl)(2-methoxyethoxy)methyl)benzo[d]imidazole-5-carbonitrile] here?
**A.** The IC50 was 1870 nM.

**Q.** Which IC50 does the source give for `Cc1cc(C)c2[nH]ccc2c1C(C)c1nc2cc(C#N)ccc2[nH]1` (racemic) [Example 75-D, (±)-2-(1-(5,7-Dimethyl-1H-indol-4-yl)ethyl)-1H-benzo[d]imidazole-5-carbonitrile] here?
**A.** The IC50 was 470 nM.

**Q.** With `Cc1cc2c(c3cc[nH]c13)C(c1nc3cc(C#N)ccc3[nH]1)(C(F)(F)F)OC2=O` (racemic) [Example 81-D, (±)-2-(5-Methyl-3-oxo-1-(trifluoromethyl)-3,6-dihydro-1H-furo[3,4-e]indol-1-yl)-1H-benzo[d]imidazole-5-carbonitrile] as the compound, how does the IC50 read?
**A.** The IC50 was 2930 nM.

**Q.** For `Cc1cc(CO)c(C(O)(c2nc3cc(C#N)ccc3[nH]2)C(F)(F)F)c2cc[nH]c12` (racemic) [Example 81-E, (±)-2-(2,2,2-Trifluoro-1-hydroxy-1-(5-(hydroxymethyl)-7-methyl-1H-indol-4-yl)ethyl)-1H-benzo[d]imidazole-5-carbonitrile], which IC50 is on record?
**A.** Its IC50 is 1640 nM.

**Q.** With `CNC(=O)c1cc(C)c2[nH]ccc2c1C(O)(c1nc2cc(C#N)ccc2[nH]1)C(F)(F)F` (racemic) [Example 82, (±)-4-(1-(5-cyano-1H-benzo[d]imidazol-2-yl)-2,2,2-trifluoro-1-hydroxyethyl)-N,7-dimethyl-1H-indole-5-carboxamide] as the compound, how does the IC50 read?
**A.** The IC50 was 71900 nM.

**Q.** How did the IC50 turn out when `Cc1cc(C(F)(F)F)c(C(C)(O)c2nc3cc(C#N)ccc3[nH]2)c2cc[nH]c12` (racemic) [Example 83-B, (±)-2-(1-hydroxy-1-(7-methyl-5-(trifluoromethyl)-1H-indol-4-yl)ethyl)-1H-benzo[d]imidazole-5-carbonitrile] was run?
**A.** The IC50 was 1440 nM.

**Q.** With `CCc1cc(C)c2[nH]cc(Cl)c2c1C(O)c1nc2cc(C#N)ccc2[nH]1` (racemic) [Example 87, (±)-2-((3-Chloro-5-ethyl-7-methyl-1H-indol-4-yl)(hydroxy)methyl)-1H-benzo[d]imidazole-5-carbonitrile] as the compound, how does the IC50 read?
**A.** The IC50 was 380 nM.

**Q.** `Cc1cc(C)c2[nH]cc(C)c2c1C(O)c1nc2cc(C#N)ccc2[nH]1` (racemic) [Example 89-D, (±)-2-(Hydroxy(3,5,7-trimethyl-1H-indol-4-yl)methyl)-1H-benzo[d]imidazole-5-carbonitrile] was tested. Which IC50 did it give?
**A.** Its IC50 is 2320 nM.

**Q.** Which IC50 does the source give for `CCc1cc(C)c2[nH]cc(C(O)C(F)(F)F)c2c1Cc1nc2cc(C#N)ccc2[nH]1` (racemic) [Example 92-B, (±)-2-((5-Ethyl-7-methyl-3-(2,2,2-trifluoro-1-hydroxyethyl)-1H-indol-4-yl)methyl)-1H-benzo[d]imidazole-5-carbonitrile] here?
**A.** The IC50 was 9750 nM.

**Q.** `CNC(c1nc2cc(C#N)ccc2[nH]1)c1c(C)cc(C)c2[nH]ccc12` (racemic) [Example 98-B, (±)-2-((5,7-Dimethyl-1H-indol-4-yl)(methylamino)methyl)-1H-benzo[d]imidazole-5-carbonitrile] was tested. Which IC50 did it give?
**A.** Its IC50 is 560 nM.

**Q.** `Cc1cc(C)c2[nH]ccc2c1C(NS(C)(=O)=O)c1nc2cc(C#N)ccc2[nH]1` (racemic) [Example 99-B, (±)-N-((5-cyano-1H-benzo[d]imidazol-2-yl)(5,7-dimethyl-1H-indol-4-yl)methyl)methanesulfonamide] was tested. Which IC50 did it give?
**A.** The IC50 was 750 nM.

**Q.** How did the IC50 turn out when `CC(=O)NC(c1nc2cc(C#N)ccc2[nH]1)c1c(C)cc(C)c2[nH]ccc12` (racemic) [Example 100, (±)-N-((5-cyano-1H-benzo[d]imidazol-2-yl)(5,7-dimethyl-1H-indol-4-yl)methyl)acetamide] was run?
**A.** Its IC50 is 1120 nM.

**Q.** How did the IC50 turn out when `CNC(C)(c1nc2cc(C#N)ccc2[nH]1)c1c(C)cc(C)c2[nH]ccc12` (racemic) [Example 103-E, (±)-2-(1-(5,7-Dimethyl-1H-indol-4-yl)-1-(methylamino)ethyl)-1H-benzo[d]imidazole-5-carbonitrile] was run?
**A.** Its IC50 is 50 nM.

**Q.** Which IC50 does the source give for `Cc1cc(C)c2[nH]ccc2c1C(C)(c1nc2cc(C#N)ccc2[nH]1)N(C)C` (racemic) [Example 104-B, (±)-2-(1-(5,7-dimethyl-1H-indol-4-yl)-1-(dimethylamino)ethyl)-1H-benzo[d]imidazole-5-carbonitrile] here?
**A.** The IC50 was 260 nM.

**Q.** Which IC50 does the source give for `Cc1cc(C)c2[nH]ccc2c1C(CO)c1nc2cc(C#N)ccc2[nH]1` (racemic) [Example 108-E, (±)-2-(1-(5,7-Dimethyl-1H-indol-4-yl)-2-hydroxyethyl)-1H-benzo[d]imidazole-5-carbonitrile] here?
**A.** Its IC50 is 80 nM.

**Q.** How did the IC50 turn out when `CCc1cc(C)c2[nH]ccc2c1C(OCC(=O)O)(c1nc2cc(C#N)ccc2[nH]1)C(F)(F)F` (racemic) [Example 109-B, (±)-2-(1-(5-cyano-1H-benzo[d]imidazol-2-yl)-1-(5-ethyl-7-methyl-1H-indol-4-yl)-2,2,2-trifluoroethoxy)acetic acid] was run?
**A.** Its IC50 is 30 nM.

**Q.** With `CCc1cc(C)c2[nH]cc(-c3ccccc3)c2c1C(O)c1nc2cc(C#N)ccc2[nH]1` (racemic) [Example 117-F, (±)-2-((5-Ethyl-7-methyl-3-phenyl-1H-indol-4-yl)(hydroxy)methyl)-1H-benzo[d]imidazole-5-carbonitrile] as the compound, how does the IC50 read?
**A.** Its IC50 is 70 nM.

**Q.** With `Cc1cc(C)c2[nH]cc(-c3ccn[nH]3)c2c1C(O)c1nc2cc(C#N)ccc2[nH]1` (racemic) [Example 121-D, (±)-2-((5,7-Dimethyl-3-(1H-pyrazol-5-yl)-1H-indol-4-yl)(hydroxy)methyl)-1H-benzo[d]imidazole-5-carbonitrile] as the compound, how does the IC50 read?
**A.** Its IC50 is 480 nM.

**Q.** How did the IC50 turn out when `COc1cc(C)c2[nH]ccc2c1C(OCC(=O)O)(c1nc2cc(C#N)ccc2o1)C(F)(F)F` (racemic) [Example 129-B, (±)-2-(1-(5-cyanobenzo[d]oxazol-2-yl)-2,2,2-trifluoro-1-(5-methoxy-7-methyl-1H-indol-4-yl)ethoxy)acetic acid] was run?
**A.** The IC50 was 7860 nM.

Reference: patent US9056874B2, “Complement pathway modulators and uses thereof” (NOVARTIS AG, priority 2012, dated 2015)
